Assay results as given in US20040019095A1, “N, N'-dimethylated N-confused porphyrins” (priority 2002, published 2004).

Assay: Singlet oxygen test with DPBF (decay of DPBF absorption at 418 nm on irradiation)
Assay type: physicochemical
Details: solution of DPBF and porphyrin salt irradiated with halogen lamp, filter ~700 nm; b88: four 20 seconds intervals
Text: Alternatively, the ability to generate singlet oxygen may be tested as follows. DPBF (1,3-diphenylisobenzofuran)^8 is used to determine the ability of N,N′-dimethylated N-confused porphyrin salts to generate singlet oxygen. DPBF reacts quickly with singlet oxygen and its absorption decay around 418 nm can be easily monitored. […] A solution containing DPBF and N,N′-dimethylated N-confused porphyrin salts (e.g. compound 9 in FIG. 3) was irradiated with a halogen lamp using a filter (˜700 nm), and monitored by UV-vis spectroscopy at 418 nm.
Pyrrole (Acros) was distilled from CaH2 before use. The silica gel was 230-400 mesh Silicycle). Activity III basic alumina was obtained by adding 6% water to activity I Brockman basic alumina, 60-325 mesh (Fisher). All other materials and solvents were used as received. The NMR spectra were recorded on a Bruker WH-400 or a Bruker AV-400 in the solvents indicated and were referenced to residual solvent peaks. Elemental analyses were performed on a Carlo Erba Elemental Analyzer1108. The UV-vis spectra were measured on a Cary 50. Mass spectra were determined on a KRATOS Concept IIHQ hybrid mass spectrometer. Irradiations were carried with a 250 W Osram HLX 64655 […] in an Oriel lamp housing (model 66184). The light output passed through a glass filter: P70-700-S-Corion. […]

Q: For “N,N′-Dimethylated 2-aza-5,10,15,20-tetra(p-tolyl)-21-carba-porphyrin.HI [compound 9]”, which “decay of UV-vis signal at 418 nm (singlet oxygen generation)” value is on record?
A: Substantial decay
